Patent US8372866B2, “2-aryl and 2-heteroaryl 4H-1-benzopyran-4-one-6-amidino derivatives, new pharmacological agents for the treatment of arthritis, cancer and related pain” (Rottapharm S.p.A., priority 2008, dated 2013)
pIC50: −log10 of the molar value. Where a name gives a salt, the structure may show the parent alone. Read-outs that look alike come from different tables or passages of the source.

Key:
[1] = target: T1, recombinant human aggrecanase 1 (ADAMTS-4) (Homo sapiens, UniProt O75173); assay: InviLISA Aggrecanase activity assay, aggrecanase 1; format: biochemical; details: inhibitors tested at 10 μM final concentration
T1 construct: ADAMTS-4 aminoacids F213-A579 with C-terminal tag; purchased Invitek GmbH, Berlin
T1 sequence (O75173 213-579): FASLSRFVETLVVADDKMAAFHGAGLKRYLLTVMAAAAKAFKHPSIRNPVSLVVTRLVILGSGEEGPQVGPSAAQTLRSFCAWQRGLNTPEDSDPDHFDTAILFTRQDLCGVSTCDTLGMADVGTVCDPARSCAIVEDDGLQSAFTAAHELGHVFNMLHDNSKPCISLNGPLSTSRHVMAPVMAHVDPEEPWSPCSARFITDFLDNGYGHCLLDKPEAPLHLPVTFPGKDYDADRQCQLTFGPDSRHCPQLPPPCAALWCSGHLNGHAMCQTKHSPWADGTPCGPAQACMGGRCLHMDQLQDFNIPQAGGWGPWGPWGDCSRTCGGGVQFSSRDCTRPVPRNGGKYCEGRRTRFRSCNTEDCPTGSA
Description: (§1) The InviLISA Aggrecanase activity assay (Invitek GmbH, Berlin) was used to screen and characterise aggrecanase inhibitors. The assay was carried out in two steps, according to Will et al. (Will H, Dettloff M, Bendzko P, Svenshnikov P, A Quantitative Assay for aggrecanase Activity; 2005, Journal of Biomolecular Techniques, 16 (4), 459-472). A recombinant fragment of human aggrecan interglobular domain (aggrecan-IGD; T331-G458) is first digested with aggrecanase. Proteolytic cleavage of the substrate releases an aggrecan peptide with the N-terminal sequence ARGSVIL (ARGSVIL-peptide), that was then quantified with two monoclonal anti-peptide antibodies (ELISA module). For precise calculation of product, ARGSVIL-peptide standard concentrations were run in parallel.
(§2) 1) Proteolysis of aggrecan-IGD by aggrecanase. Aggrecan-IGD was incubated with standard recombinant human aggrecanase 1 (ADAMTS-4 aminoacids F213-A579 with C-terminal tag) or standard recombinant human aggrecanase 2 (ADAMTS-5 aminoacids S262-G625 with C-terminal tag) in the absence (total enzymatic activity) or presence (modulated enzymatic activity) of inhibitors to be tested. Enzymes were pre-incubated with the inhibitors or the appropriate concentration of diluent as control (DMSO 0.25% final concentration in proteolysis), at 4° C. for 30 min prior to assaying their activity. Five microliters of mix enzyme-inhibitor were added to the substrate (0.1 μM final concentration) in a total volume of 100 μL and incubated for 15 minutes at 37° C. The reaction was terminated with EDTA-containing buffer. The inhibitors were tested at 10 μM final concentration and compounds achieving ≧50% inhibitory effect were evaluated for IC50 calculation, in a range generally extended from 0.1 to 10 μM final concentration.
(§3) 2) Aggrecan peptide ELISA. ARGSVIL-peptide standard, proteolytic digestion of Aggrecan-IGD with standard aggrecanases and test samples were incubated in microtiter wells pre-coated with anti-ARGSVIL-neoepitope antibody. ARGSVIL-peptide is bound to the coated antibody, while other components are removed by washing and aspiration. The bound ARGSVIL-peptide was detected with a second peroxidase-labelled antibody. Any excess of the conjugate was removed by washing and aspiration. The amount of peroxidase bound to different wells was determined in reactions with peroxidase substrate TMB. The reactions are stopped by addition of sulphuric acid solution and absorbance is read at 450 nm in a microtiter plate spectrophotometer.

[2] = target: T2, recombinant human aggrecanase 2 (ADAMTS-5) (Homo sapiens, UniProt Q9UNA0); assay: InviLISA Aggrecanase activity assay, aggrecanase 2; format: biochemical; details: for inhibition at 10 µM: inhibitors tested at 10 μM final concentration
T2 construct: ADAMTS-5 aminoacids S262-G625 with C-terminal tag; purchased Invitek GmbH, Berlin
T2 sequence (Q9UNA0 262-625): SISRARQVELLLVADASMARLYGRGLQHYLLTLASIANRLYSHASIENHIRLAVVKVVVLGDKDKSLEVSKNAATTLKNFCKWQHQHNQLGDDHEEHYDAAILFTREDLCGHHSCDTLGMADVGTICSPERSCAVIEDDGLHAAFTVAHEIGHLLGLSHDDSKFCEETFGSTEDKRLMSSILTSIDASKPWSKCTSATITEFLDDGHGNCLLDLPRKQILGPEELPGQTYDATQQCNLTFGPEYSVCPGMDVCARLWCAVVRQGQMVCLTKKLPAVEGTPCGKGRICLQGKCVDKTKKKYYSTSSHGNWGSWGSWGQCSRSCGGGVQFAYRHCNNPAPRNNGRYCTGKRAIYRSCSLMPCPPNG
Description: as §1, §2, §3

[3] = tested on: Zymosan-induced mechanical hyperalgesia; assay: Zymosan-induced mechanical hyperalgesia (Randall-Selitto), model of inflammatory pain; format: in vivo, rat; details: for ED50: read-out: ED50 4 hrs
Description: In this model, typically a male Sprague-Dawley or Wistar rat (200-250 g) receives an interplantar injection of 3 mg/100 μl zymosan into one hind paw. A marked inflammation occurs in this hind paw. Drugs are administered orally for evaluation of efficacy, 30 min. before the inflammatory insult. […] The quantisation of the analgesic effect is achieved by an analgesimeter, which consists in applying to the inflamed paw an increasing weight (from 130-140 g up to 500 g). […] For each test compound, at least three doses were used, with 8 animals per group. Compounds of the invention were tested at 10, 20 and 40 mg/Kg.

[4] = tested on: CFA-induced prolonged inflammation; assay: CFA model of chronic inflammatory pain (Randall-Selitto); format: in vivo, rat; details: for MPE 0.5 hrs / MPE 1.5 hrs / MPE 3 hrs / MPE 6 hrs / MPE 24 hrs: NE = not effective
[5] = tested on: mechanical hyperalgesia associated with STZ-induced diabetes; assay: STZ-induced diabetes mechanical hyperalgesia, model of neuropathic pain (Randall-Selitto); format: in vivo, rat; details: for MPE 0.5 hrs / MPE 1.5 hrs / MPE 3 hrs: NE = not effective
Description: Painful diabetic neuropathy is one of the most common complications of insulin-dependent diabetes in man; in particular, diabetes can be associated with neuropathic pain which fails to be treated by classical analgesics. Streptozotocin (STZ)-induced diabetes in the rat has been increasingly used as a model of painful diabetic neuropathy to assess the efficacies of potential analgesic agents (C. Courteix, Pain 1993, 53, 81-8). A representative compound of the invention was tested for efficacy in reducing mechanical hyperalgesia associated with STZ-induced diabetes in the rat, according to the experimental model as described by the literature. Diabetes was produced with the injection of a single dose (75 mg/Kg i.p.) of STZ. In the following four weeks after the induction of diabetes the clinical symptoms (weight, body and skin temperature, motility and hyperglycemia) progressively developed by the animals, are strictly monitored.
After four weeks, the scores obtained in diabetic rats to various pain stimuli (in particular mechanical stimuli) were greater than those in normal rats, indicating hyperalgesia. The hyperalgesia induced by diabetes was evaluated using the Randall-Selitto method as above described, and quantitated using the analgesimeter. Also in this case, the difference in the mechanical pain threshold between the basal value (generally 230-250 g) and the one tolerated by the animals treated with the drug, is defined as mechanical hyperalgesia. The compound of the invention was administered i.p. (solution, Tween 80, 10% in saline) at different doses, and mechanical hyperalgesia was measured at the reported time, as maximum percent effect (MPE) which represents the difference (%) in pain threshold between the animals treated with the drug and the controls that received only the vehicle, compared with the weight borne by naïf non-diabetic controls. A 100% protection means that the diabetic animals treated with the compound can tolerate the same stimulus (weight) as the naïf non-diabetic animals. MPE higher than 100% means that the diabetic animal treated with the compound can tolerate stimuli (weight) higher than the control non-diabetic animals (hypoalgesia).
In Table 4, the effect of a representative compound of formula (I), in the above described model of neuropathic pain, is compared with some known pharmacological standards used for the clinical treatment of this pathology. In particular, from the MPE data at 0.5 hrs, the doses yielding a protection of 50% (ED50) and 100% (ED100) have been calculated.

[6] = rat, OS, 4 hrs after zymosan, NC = not calculable

COc1ccc(-c2cc(=O)c3cc(NC(C)=N)ccc3o2)cc1 [Example 2, 2-(4-methoxyphenyl)-6-[(1-iminoethyl)amino]-4H-1-benzopyran-4-one hydrochloride monohydrate]
inhibition at 10 µM [1]: 30% | inhibition at 10 µM [2]: 30% | ED50 ([3]; Rattus norvegicus, 4 h): 6.5 mg/kg | ED100 4 hrs [3, 6]: 18 mg/kg | MPE 0.5 hrs ([4]; 3 mg/Kg IP): 91% | MPE 1.5 hrs ([4]; 3 mg/Kg IP): 87% | MPE 3 hrs ([4]; 3 mg/Kg IP): 32% | MPE 0.5 hrs ([4]; 10 mg/Kg IP): 193% | MPE 1.5 hrs ([4]; 10 mg/Kg IP): 105% | MPE 3 hrs ([4]; 10 mg/Kg IP): 42% | MPE 6 hrs ([4]; 10 mg/Kg IP): 43% | MPE 24 hrs ([4]; 10 mg/Kg IP): 38% | MPE 0.5 hrs ([4]; 30 mg/Kg IP): 254% | MPE 1.5 hrs ([4]; 30 mg/Kg IP): 190% | MPE 3 hrs ([4]; 30 mg/Kg IP): 146% | MPE 6 hrs ([4]; 30 mg/Kg IP): 89% | MPE 24 hrs ([4]; 30 mg/Kg IP): 45% | ED100 0.5 hrs ([4]; IP, calculated from the MPE data at 0.5 hrs): 3.15 mg/kg | ED50 ([4]; Rattus norvegicus, ip, 0.5 h, read-out: ED50 0.5 hrs): 1.56 mg/kg

CC(=N)Nc1ccc2oc(-c3ccc(F)cc3)cc(=O)c2c1 [Example 3, 2-(4-fluorophenyl)-6-[(1-iminoethyl)amino]-4H-1-benzopyran-4-one]
inhibition at 10 µM [1]: 40% | pIC50 [2]: 5.00 | ED100 4 hrs [3, 6]: 24 mg/kg | ED50 [3, 6]: 12 mg/kg

CC(=N)Nc1ccc2oc(-c3ccc4c(c3)OCO4)cc(=O)c2c1 [Example 4, 2-(benzo[1,3]dioxol-5-yl)-6-[(1-iminoethyl)amino]-4H-1-benzopyran-4-one hydrochloride]
inhibition at 10 µM [1]: 40% | inhibition at 10 µM [2]: 10% | ED50 ([3]; Rattus norvegicus, 4 h): 12 mg/kg | ED100 4 hrs [3, 6]: 35 mg/kg

COc1ccc(-c2oc3ccc(NC(C)=N)cc3c(=O)c2O)cn1 [Example 20, 2-(6-methoxypyridin-3-yl)-3-hydroxy-6-[(1-iminoethyl)amino]-4H-1-benzopyran-4-one]
inhibition at 10 µM [1]: 0% | pIC50 [2]: 5.66

CS(=O)(=O)Nc1ccc([N+](=O)[O-])cc1Oc1ccccc1 [Nimesulide, reference compound]
ulcerative side effects ([3]; even at the higher doses tested): ulcerative side effects | ED50 [3, 6]: 5 mg/kg

COc1cccc(C2(O)CCCCC2CN(C)C)c1 (centres unmarked) [Tramadol]
ED50 ([3]; Rattus norvegicus, 4 h): 25.7 mg/kg | MPE 0.5 hrs ([5]; 3 mg/Kg IP): 26% | MPE 1.5 hrs ([5]; 3 mg/Kg IP): 53% | MPE 0.5 hrs ([5]; 10 mg/Kg IP): 58% | MPE 1.5 hrs ([5]; 10 mg/Kg IP): 48% | MPE 3 hrs ([5]; 10 mg/Kg IP): 27% | MPE 0.5 hrs ([5]; 30 mg/Kg IP): 54% | MPE 1.5 hrs ([5]; 30 mg/Kg IP): 64% | MPE 3 hrs ([5]; 30 mg/Kg IP): 23% | MPE 0.5 hrs ([5]; 50 mg/Kg IP): 81% | MPE 1.5 hrs ([5]; 50 mg/Kg IP): 60% | MPE 3 hrs ([5]; 50 mg/Kg IP): 43% | ED50 ([5]; Rattus norvegicus, ip, 0.5 h, read-out: ED50 0.5 hrs, IP, calculated from the MPE data at 0.5 hrs, NC = not calculable): 10.9 mg/kg
